pIC50: −log10 of the molar value.
Molecular target: Sodium-dependent serotonin transporter (Rattus norvegicus, UniProt P31652)
Test: Inhibition of [3H]5-HT reuptake at SERT in rat brain synaptosomes
Type: subcellular

Chain of Sodium-dependent serotonin transporter (P31652 whole entry): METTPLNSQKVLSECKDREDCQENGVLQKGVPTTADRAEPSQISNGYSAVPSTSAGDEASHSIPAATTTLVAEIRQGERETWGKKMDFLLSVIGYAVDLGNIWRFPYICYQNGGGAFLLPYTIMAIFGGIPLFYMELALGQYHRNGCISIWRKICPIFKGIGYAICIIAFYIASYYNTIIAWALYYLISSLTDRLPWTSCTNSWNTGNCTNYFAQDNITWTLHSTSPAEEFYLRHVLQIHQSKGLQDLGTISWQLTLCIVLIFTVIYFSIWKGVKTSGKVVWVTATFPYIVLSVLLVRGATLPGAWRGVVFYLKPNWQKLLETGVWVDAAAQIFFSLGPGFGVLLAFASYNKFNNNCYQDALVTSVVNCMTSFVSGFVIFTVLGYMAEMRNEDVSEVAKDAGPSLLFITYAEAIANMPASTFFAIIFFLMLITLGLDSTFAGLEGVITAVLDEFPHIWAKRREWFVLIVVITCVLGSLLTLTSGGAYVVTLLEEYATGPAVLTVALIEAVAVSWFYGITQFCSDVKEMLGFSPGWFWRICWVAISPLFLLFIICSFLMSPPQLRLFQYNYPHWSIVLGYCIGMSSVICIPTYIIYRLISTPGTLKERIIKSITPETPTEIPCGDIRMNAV

Question: With `CC(C)[C@@]1(O)C=C2[C@H](O)C[C@@H]3[C@](C)(CCC[C@@]3(C)C(=O)O)[C@H]2C[C@@H]1O` [AQUILARABIETIC ACID B] as the compound, how does the pIC50 read?
Answer: 5.49

Test system: not listed separately
Test: Inhibition of [3H]NE reuptake at NET in rat brain synaptosomes
Type: subcellular

Question: With `CC(C)[C@@]1(O)C=C2[C@H](O)C[C@H]3[C@](C)(C(=O)O)CCC[C@]3(C)[C@@]2(O)CC1` [AQUILARABIETIC ACID A] as the compound, how does the pIC50 read?
Answer: 6.04

Organism: Rattus norvegicus
Test: Inhibition of [3H]NE reuptake at NET in rat brain synaptosomes at 10 uM
Type: subcellular

Question: For `CC(C)(O)[C@]1(O)CCC2=C(C(=O)C[C@H]3[C@](C)(C(=O)O)CCC[C@]23C)[C@H]1O`, which inhibition is on record?
Answer: 0%

Question: With `CC(C)[C@@]1(O)C=C2[C@H](O)C[C@H]3[C@](C)(C(=O)O)CCC[C@]3(C)[C@@]2(O)CC1` [AQUILARABIETIC ACID A] as the compound, how does the inhibition read?
Answer: 81.8%

Question: For `COC(C)(C)c1ccc2c(c1)[C@H](O)C[C@H]1[C@](C)(C(=O)O)CCC[C@]21C`, which inhibition is on record?
Answer: 70.4%

Question: Which inhibition does the source give for `CNCC[C@H](Oc1cccc2ccccc12)c1cccs1` here?
Answer: 81.4%

Question: With `CC(C)[C@@]1(O)C=C2[C@H](O)C[C@@H]3[C@](C)(CCC[C@@]3(C)C(=O)O)[C@H]2C[C@@H]1O` [AQUILARABIETIC ACID B] as the compound, how does the inhibition read?
Answer: 39.1%

Question: With `CC(C)[C@@]12CC[C@H]3C(=C[C@@H]4OC(=O)[C@]5(C)CCC[C@@]3(C)[C@@H]45)[C@@H]1O2` as the compound, how does the inhibition read?
Answer: 8.1%

Question: Which inhibition does the source give for `CCO[C@H]1C[C@H]2C(=CC[C@@H]3[C@]2(C)CCC[C@@]3(C)C(=O)O)C=C1C(C)C` here?
Answer: 13.4%

Question: For `CC(C)[C@@]12C=C3[C@H](O)C[C@@H]4[C@](C)(CCC[C@@]4(C)C(=O)O)[C@H]3C[C@@H]1OC(C)(C)O2`, which inhibition is on record?
Answer: 37.6%

Question: For `CC(C)[C@]1(O)C=C2[C@H](O)C[C@@H]3[C@](C)(CCC[C@@]3(C)C(=O)O)[C@H]2C[C@H]1O`, which inhibition is on record?
Answer: 34.4%

Question: With `CC(C)[C@]1(O)CC[C@H]2C(=C[C@H](O)[C@@H]3[C@]2(C)CCC[C@@]3(C)C(=O)O)[C@H]1O` as the compound, how does the inhibition read?
Answer: 37.2%

Question: For `C[C@]12CCC[C@@](C)(C(=O)O)[C@@H]1CC(=O)C1CC(=O)CC[C@@H]12` (some centres undefined), which inhibition is on record?
Answer: 18.9%

Question: With `C=C(C)c1ccc2c(c1)[C@H](O)C[C@H]1[C@](C)(C(=O)O)CCC[C@]21C` as the compound, how does the inhibition read?
Answer: 73.8%

— ChEMBL document CHEMBL2331557, “Antidepressant abietane diterpenoids from Chinese eaglewood” (J Nat Prod, 2013)
